Key:
Type in all cases: biochemical
SetD8 = target: T1, SetD8 (Homo sapiens, UniProt Q9NQR1); assay: HMT panel selectivity: SetD8
T1 sequence (Q9NQR1 1-393): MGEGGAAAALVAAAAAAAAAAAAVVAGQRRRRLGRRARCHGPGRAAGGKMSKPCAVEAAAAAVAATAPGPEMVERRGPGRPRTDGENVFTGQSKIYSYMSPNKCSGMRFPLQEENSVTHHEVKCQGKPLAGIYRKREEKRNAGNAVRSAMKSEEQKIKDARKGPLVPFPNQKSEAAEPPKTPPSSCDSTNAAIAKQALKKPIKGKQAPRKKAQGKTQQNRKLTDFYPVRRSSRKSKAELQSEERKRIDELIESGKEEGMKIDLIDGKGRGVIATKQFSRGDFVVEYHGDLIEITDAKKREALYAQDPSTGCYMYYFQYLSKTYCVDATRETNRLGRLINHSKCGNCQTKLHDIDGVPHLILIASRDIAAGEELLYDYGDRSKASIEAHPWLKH
Procedure: (§1) Note: for EZH2, EZH2/EED/SUZ12/RBAP48/AEBP2 was used in the assay; for EZH1, EZH1/EED/SUZ12/RBAP48/AEBP2 was used in the assay; for MLL, MLL/WDR5/RBBP5/ASH2L/ was use in the assay. a, H3K27me0 peptide was used as substrate for both EZH2 and EZH1 activity; b, H3K27me1 peptide was used as substrate for both EZH2 and EZH1 activity. All HMT reactions were performed as described previously. ref: Proc Natl Acad Sci U S A. 2012 Dec 26;109(52):21360-5.

Set7/9 = target: T2, Set7/9 (Homo sapiens, UniProt Q8WTS6); assay: HMT panel selectivity: Set7/9
T2 sequence (Q8WTS6 1-366): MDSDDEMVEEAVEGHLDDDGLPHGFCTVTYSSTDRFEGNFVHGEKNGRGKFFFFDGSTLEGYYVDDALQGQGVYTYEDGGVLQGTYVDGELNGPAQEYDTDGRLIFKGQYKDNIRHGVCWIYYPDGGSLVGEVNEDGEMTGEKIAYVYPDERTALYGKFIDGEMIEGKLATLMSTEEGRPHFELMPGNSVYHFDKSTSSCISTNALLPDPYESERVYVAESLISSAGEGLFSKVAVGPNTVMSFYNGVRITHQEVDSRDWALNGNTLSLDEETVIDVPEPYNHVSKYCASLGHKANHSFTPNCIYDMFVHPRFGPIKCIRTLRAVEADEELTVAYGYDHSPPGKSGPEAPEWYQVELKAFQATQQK
Procedure: as §1

NSD3 = target: T3, NSD3 (Homo sapiens, UniProt Q9BZ95); assay: HMT panel selectivity: NSD3
T3 sequence (Q9BZ95 1-1437): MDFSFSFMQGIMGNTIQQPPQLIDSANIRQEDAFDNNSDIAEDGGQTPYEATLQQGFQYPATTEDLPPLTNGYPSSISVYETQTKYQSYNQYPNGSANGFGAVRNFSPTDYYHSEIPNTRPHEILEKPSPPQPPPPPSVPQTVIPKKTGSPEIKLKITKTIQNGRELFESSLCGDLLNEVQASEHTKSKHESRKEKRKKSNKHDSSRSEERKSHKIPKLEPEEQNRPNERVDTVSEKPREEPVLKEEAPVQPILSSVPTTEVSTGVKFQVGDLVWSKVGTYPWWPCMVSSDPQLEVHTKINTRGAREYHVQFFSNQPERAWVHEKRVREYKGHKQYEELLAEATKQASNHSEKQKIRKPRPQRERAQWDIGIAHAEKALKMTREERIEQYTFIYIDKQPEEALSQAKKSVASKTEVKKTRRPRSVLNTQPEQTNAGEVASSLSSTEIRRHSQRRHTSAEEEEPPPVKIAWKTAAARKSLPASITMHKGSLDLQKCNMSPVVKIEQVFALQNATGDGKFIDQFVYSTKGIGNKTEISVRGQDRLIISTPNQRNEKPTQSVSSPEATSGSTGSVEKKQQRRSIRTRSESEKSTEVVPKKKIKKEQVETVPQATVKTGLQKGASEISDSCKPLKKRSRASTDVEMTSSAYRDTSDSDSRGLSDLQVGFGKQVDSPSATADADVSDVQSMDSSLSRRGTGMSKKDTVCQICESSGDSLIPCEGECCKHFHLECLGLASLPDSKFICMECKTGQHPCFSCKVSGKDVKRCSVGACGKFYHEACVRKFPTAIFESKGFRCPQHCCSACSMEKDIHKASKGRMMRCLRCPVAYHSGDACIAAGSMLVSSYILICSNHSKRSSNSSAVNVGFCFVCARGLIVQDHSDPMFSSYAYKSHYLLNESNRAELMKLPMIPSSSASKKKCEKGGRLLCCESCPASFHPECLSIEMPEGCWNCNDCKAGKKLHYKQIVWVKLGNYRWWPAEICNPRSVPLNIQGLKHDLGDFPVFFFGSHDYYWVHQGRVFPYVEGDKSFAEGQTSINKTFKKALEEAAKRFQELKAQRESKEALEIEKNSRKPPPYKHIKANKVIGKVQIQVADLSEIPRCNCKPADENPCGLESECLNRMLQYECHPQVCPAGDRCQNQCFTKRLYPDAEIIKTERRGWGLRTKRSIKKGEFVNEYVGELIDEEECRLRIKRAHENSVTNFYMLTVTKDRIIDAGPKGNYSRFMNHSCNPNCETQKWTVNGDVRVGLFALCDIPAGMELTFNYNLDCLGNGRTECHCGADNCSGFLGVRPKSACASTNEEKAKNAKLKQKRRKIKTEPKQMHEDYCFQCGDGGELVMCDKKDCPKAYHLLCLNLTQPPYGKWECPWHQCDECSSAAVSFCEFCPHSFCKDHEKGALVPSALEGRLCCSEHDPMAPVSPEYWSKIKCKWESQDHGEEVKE
Procedure: as §1

SMYD2 = SMYD2 (Homo sapiens, UniProt Q9NRG4); assay: HMT panel selectivity: SMYD2
Procedure: as §1

Measured: IC50

SMYD2, sequence (Q9NRG4 whole entry, species assumed): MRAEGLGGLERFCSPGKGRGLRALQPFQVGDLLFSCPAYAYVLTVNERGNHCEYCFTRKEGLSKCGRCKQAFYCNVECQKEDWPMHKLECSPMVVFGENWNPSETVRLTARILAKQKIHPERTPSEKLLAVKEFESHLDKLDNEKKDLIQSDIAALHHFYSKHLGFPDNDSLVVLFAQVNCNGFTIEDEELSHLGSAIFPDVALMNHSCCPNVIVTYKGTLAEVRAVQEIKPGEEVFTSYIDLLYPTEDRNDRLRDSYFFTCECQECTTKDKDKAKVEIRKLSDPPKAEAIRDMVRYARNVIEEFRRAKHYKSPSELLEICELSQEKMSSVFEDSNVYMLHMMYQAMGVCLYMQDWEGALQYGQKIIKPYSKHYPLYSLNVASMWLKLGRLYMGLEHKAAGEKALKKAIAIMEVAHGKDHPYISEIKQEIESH

N#Cc1c2c(c3nncn3c1NCc1ccco1)CN(Cc1ccccc1)CC2 [EED162]
> 100 µM: all assays above

COc1cccc(CC2CC3Cc4c(cccc4OC)CC3N(C)C2)c1 (centres unmarked) [EED210]
> 100 µM: all assays above

COc1cc(-c2cc3n(c(=N)c2C#N)CCc2cc4c(cc2-3)OCO4)ccc1OC(C)C [EED396]
> 100 µM: all assays above

Cc1cc(C)n(-c2cc(N3CCc4ccccc4C3)ccc2[N+](=O)[O-])n1 [EED666]
> 100 µM: all assays above

COc1ccccc1CN1CC(c2cn(C)c3ccccc23)C(N(C)C)C1 (centres unmarked) [EED709]
> 100 µM: all assays above
